According to paper PMC3038857, “Using Nuclear Receptor Activity to Stratify Hepatocarcinogens” (PLoS ONE, 2011):

How the values were obtained:
[1] = tested on: Rat Liver; conditions: rat, chronic study, ref ToxRefDB; cited from earlier work
[2] = target: T1, PPARG (peroxisome proliferator-activated receptor gamma) (Homo sapiens, UniProt P37231); test: ATG_PPARg_TRANS: Factorial reporter gene assay (HepG2); type: cell-based; conditions: HepG2
T1 construct: expressed in transfected cells; host or cells: HepG2
T1 sequence (P37231 1-505): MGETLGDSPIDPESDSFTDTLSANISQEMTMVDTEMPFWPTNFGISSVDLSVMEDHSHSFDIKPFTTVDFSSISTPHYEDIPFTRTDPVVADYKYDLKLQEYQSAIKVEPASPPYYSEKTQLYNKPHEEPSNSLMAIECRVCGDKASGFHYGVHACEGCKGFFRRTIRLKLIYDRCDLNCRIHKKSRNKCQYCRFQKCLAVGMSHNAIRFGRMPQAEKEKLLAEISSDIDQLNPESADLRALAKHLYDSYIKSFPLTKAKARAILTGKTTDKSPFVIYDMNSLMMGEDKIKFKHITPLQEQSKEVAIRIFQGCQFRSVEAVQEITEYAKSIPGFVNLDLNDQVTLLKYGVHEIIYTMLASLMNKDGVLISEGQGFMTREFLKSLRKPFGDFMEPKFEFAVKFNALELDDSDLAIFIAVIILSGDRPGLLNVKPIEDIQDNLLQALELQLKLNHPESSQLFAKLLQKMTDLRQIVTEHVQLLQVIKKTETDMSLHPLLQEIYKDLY
Method in brief: (§1)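 Compounds at seven concentrations (top at MTC, threefold serial) were applied to transfected HepG2 hepatoma cells, with PXRE scored by cis-element reporters and ERRg, FXR and PPARg scored by trans one-hybrid nuclear receptor reporters.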

[3] = tested on: Mouse Liver; conditions: mouse, chronic study, ref ToxRefDB; cited from earlier work
[4] = tested on: Mouse Liver; conditions: mouse, chronic study, ref ToxRefDB; cited from earlier work; remark: listed apart in the source
[5] = target: T2, PXR (NR1I2) (Homo sapiens, UniProt O75469); test: NVS_NR_hPXR: Human PXR Fluormone PXR (SXR) green (cell-free HTS); type: binding
T2 sequence (O75469 1-434): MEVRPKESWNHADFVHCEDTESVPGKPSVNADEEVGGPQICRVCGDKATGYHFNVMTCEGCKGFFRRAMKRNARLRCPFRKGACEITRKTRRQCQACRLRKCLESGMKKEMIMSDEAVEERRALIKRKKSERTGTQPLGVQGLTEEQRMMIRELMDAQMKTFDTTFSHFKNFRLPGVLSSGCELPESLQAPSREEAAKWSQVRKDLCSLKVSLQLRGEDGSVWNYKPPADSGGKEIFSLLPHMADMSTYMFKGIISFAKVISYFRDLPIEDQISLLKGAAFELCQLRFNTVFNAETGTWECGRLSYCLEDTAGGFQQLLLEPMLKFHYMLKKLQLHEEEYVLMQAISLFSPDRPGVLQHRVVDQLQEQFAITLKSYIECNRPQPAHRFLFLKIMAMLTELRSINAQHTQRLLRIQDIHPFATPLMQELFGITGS
Method in brief: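 Cell-free biochemical binding assays; chemicals first screened at a single concentration of 25 […] M in duplicate wells. Signals normalised to same-plate solvent controls as percent of neutral control, and AC50 values came from Hill-equation fits of concentration-response curves.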

[6] = tested on: Rat Liver; conditions: rat, chronic study, ref ToxRefDB; cited from earlier work; remark: listed apart in the source
[7] = target: T2, PXR (NR1I2); test: ATG_PXR_TRANS: Factorial reporter gene assay (HepG2); type: cell-based; set-up: endogenous in cells; host or cells: HepG2; conditions: HepG2
Method in brief: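 Seven concentrations per chemical, three-fold dilutions down from the MTC, were tested in HepG2 hepatoma cells. Those cells carried a multiple reporter transcription unit library, read either as cis transcription-factor-site reporters or as a trans mammalian one-hybrid panel for nuclear receptors.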

[8] = tested on: Mouse Liver; conditions: mouse, chronic study, ref ToxRefDB; cited from earlier work; remark: listed apart in the source
[9] = target: T2, PXR (NR1I2); test: ATG_PXRE_CIS: Factorial reporter gene assay (HepG2); type: cell-based; set-up: endogenous in cells; host or cells: HepG2; conditions: HepG2
Method in brief: as §1

[10] = tested on: Rat Liver; conditions: rat, chronic study, ref ToxRefDB; cited from earlier work; remark: listed apart in the source
[11] = tested on: AR (androgen receptor); test: NVS_NR_hAR: Human AR 3H-Methyltrienolone (cell-free HTS); type: binding
Description: These are a collection of biochemical assays measuring binding constants and enzyme inhibition values. Chemicals were initially screened at a single concentration in duplicate wells at a concentration of 10 [drawing 63] M for cytochrome P-450 assays and 25 [drawing 64] M for all others. […] These assays were run by Caliper Life Sciences (Hanover, MD) under contract to EPA. Short assay descriptions are available at: http://www.caliperls.com/products/contract-research/in-vitro/.
Cell-free HTS Assays: A collection of biochemical assays measuring binding constants and enzyme inhibition values. […] These assays were run by Caliper Life Sciences (Hanover, MD) under contract to EPA. Short assay descriptions are available at http://www.caliperls.com/products/contract-research/in-vitro/. Values for all endpoints were imported into GeneData Screener (Basel, Switzerland) and normalised to solvent controls from the same plate as the tested compounds and expressed as percent of neutral control. Concentration-response curves were fit in GeneData Screener (Basel, Switzerland) Condeseo module using the Hill equation and AC50 values were determined. […] Detailed description of the methods, data and analysis methods for this dataset are described in a separate publication.

[12] = target: T3, ESR1 (estrogen receptor 1) (Homo sapiens, UniProt P03372); test: ATG_ERE_CIS: Factorial reporter gene assay (HepG2); type: cell-based; conditions: HepG2
T3 construct: expressed in transfected cells; host or cells: HepG2
T3 sequence (P03372 whole entry): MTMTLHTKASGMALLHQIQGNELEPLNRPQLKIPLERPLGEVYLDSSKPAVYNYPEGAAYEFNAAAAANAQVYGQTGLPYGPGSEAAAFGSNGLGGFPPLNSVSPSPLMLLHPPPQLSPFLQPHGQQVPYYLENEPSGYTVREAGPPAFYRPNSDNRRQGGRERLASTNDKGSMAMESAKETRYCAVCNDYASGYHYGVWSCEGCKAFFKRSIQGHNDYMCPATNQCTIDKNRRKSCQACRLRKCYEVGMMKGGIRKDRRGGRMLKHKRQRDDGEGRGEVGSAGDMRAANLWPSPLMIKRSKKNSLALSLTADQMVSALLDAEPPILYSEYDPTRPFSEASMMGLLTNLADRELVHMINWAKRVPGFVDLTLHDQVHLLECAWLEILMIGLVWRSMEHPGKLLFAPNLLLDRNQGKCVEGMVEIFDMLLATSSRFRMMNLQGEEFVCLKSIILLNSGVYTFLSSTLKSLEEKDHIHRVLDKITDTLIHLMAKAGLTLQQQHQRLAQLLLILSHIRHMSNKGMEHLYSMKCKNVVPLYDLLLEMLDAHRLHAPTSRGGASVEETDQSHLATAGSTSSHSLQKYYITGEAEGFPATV
Experimental: A multiple reporter transcription unit (MRTU) library consisting of 48 transcription factor binding sites was transfected into the HepG2 human liver hepatoma cell line. In addition to the cis-acting reporter genes (CIS), a modification of the approach was used to generate a trans-system (TRANS) with a mammalian one-hybrid assay consisting of an additional 25 MRTU library reporting the activity of nuclear receptor super-family members. […] These assays were performed by Attagene Inc. (Morrisville NC) under contract to EPA.
In addition to the cis-acting reporter genes (CIS), a modification of the approach was used to generate a trans-system (TRANS) with a mammalian one-hybrid assay consisting of an additional 25 MRTU library reporting the activity of nuclear receptor super-family members. […] Chemicals were then tested in the CIS and TRANS assays at seven concentrations starting at the MTC and followed by three-fold serial dilutions. These assays were performed by Attagene Inc. (Morrisville NC) under contract to EPA. Detailed description of the methods, data and analysis methods for this dataset will be presented in a separate publication.

[13] = tested on: CYP3A4; test: CLZD_CYP3A4: Change in expression of CYP3A4 (primary human hepatocytes); type: cell-based; conditions: 24 hr
Method in brief: (§2)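 Cultured primary human hepatocytes treated with chemicals for 6, 24 or 48 hr across five concentrations spanning 0.004-40 µM, then transcript level measured by quantitative nuclease protection in a multiplexed format.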

[14] = tested on: CYP2B6; test: CLZD_CYP2B6: Change in expression of CYP2B6 (primary human hepatocytes); type: cell-based; conditions: 24 hr
Method in brief: as §2

SMILES | CHR_Rat_Liver_1_AnyLesion [1] | ATG_PPARg_TRANS [2] | CHR_Mouse_Liver_1_AnyLesion [3] | CHR_Mouse_Liver_2_PreneoplasticLesion [4] | NVS_NR_hPXR [5] | CHR_Rat_Liver_2_PreneoplasticLesion [6] | ATG_PXR_TRANS [7] | CHR_Mouse_Liver_3_NeoplasticLesion [8] | ATG_PXRE_CIS [9] | CHR_Rat_Liver_3_NeoplasticLesion [10] | NVS_NR_hAR [11] | ATG_ERE_CIS [12] | CLZD_CYP3A4_24 [13] | CLZD_CYP2B6_24 [14]
CCCN(CCOc1c(Cl)cc(Cl)cc1Cl)C(=O)n1ccnc1 [r251] | 6 | 5.456 | 6 | 6 | 5.274 | 0 | 5.444 | 6 | 5.538 | 0 | 4.903 |  |  | 
Cc1cc(C)nc(NC(=O)NS(=O)(=O)c2ccccc2C(=O)OC2COC2)n1 [r232] | 6 |  | 6 |  |  | 6 |  |  | 4.337 | 0 |  | 4.319 | 4.535 | 4.534
